From PubChem BioAssay (NCI)
Values joined by “and” are separate entries in the source; they are usually repeats but may differ in a detail not shown here. Equal entries are not always repeated.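 Exposure lasted 48 hours, with cells grown in 96-well plates and compounds tested at five concentrations. Here, GI50 denotes the concentration required for 50% inhibition of growth. The concentration for full growth arrest is given as TGI.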

Experiments:
Assay in all cases: NCI tumour cell line growth inhibition, 48 h
COLO 205 colon = tested on: COLO 205 colon
OVCAR-5 ovarian = tested on: OVCAR-5 ovarian
HOP-62 NSCLC = tested on: HOP-62 NSCLC
HOP-92 NSCLC = tested on: HOP-92 NSCLC
EKVX NSCLC = tested on: EKVX NSCLC
NCI/ADR-RES ovarian = tested on: NCI/ADR-RES ovarian
M14 melanoma = tested on: M14 melanoma
UACC-62 melanoma = tested on: UACC-62 melanoma
SNB-19 CNS = tested on: SNB-19 CNS
NCI-H23 lung = tested on: NCI-H23 lung

Structure (SMILES)	TGI (COLO 205 colon)	TGI (OVCAR-5 ovarian) [µM]	TGI (HOP-62 NSCLC)	TGI (HOP-92 NSCLC)	TGI (EKVX NSCLC)	TGI (NCI/ADR-RES ovarian) [µM]	TGI (M14 melanoma) [µM]	TGI (UACC-62 melanoma) [µM]	TGI (SNB-19 CNS) [µM]	TGI (NCI-H23 lung) [µM]	GI50 (COLO 205 colon) [µM]	GI50 (OVCAR-5 ovarian) [µM]	GI50 (HOP-62 NSCLC) [µM]	GI50 (HOP-92 NSCLC) [µM]	GI50 (EKVX NSCLC) [µM]	GI50 (NCI/ADR-RES ovarian) [µM]	GI50 (SNB-19 CNS) [µM]	GI50 (NCI-H23 lung) [µM]	GI50 (M14 melanoma) [µM]	GI50 (UACC-62 melanoma) [µM]
O=C(O)c1ccc(S(=O)(=O)N=Nc2c(O)[nH]c3ccccc23)cc1	> 100 µM	> 100	> 100 µM	> 100 µM	> 100 µM	> 100	> 100	> 100	> 100	> 100	–	–	–	–	–	–	–	–	–	–
CC12CCc3ccccc3C1=Nc1ccccc12 (stereo not drawn)	> 100 µM	> 100	> 100 µM	54 µM	> 100 µM	64.6	> 100	> 100	> 100	> 100	–	–	–	–	–	–	–	–	–	–
COc1cccc2c1cc([N+](=O)[O-])c1c(C(=O)O)cc3c(c12)OCO3	2.8 µM and 2.97 µM	> 87.6	97.8 µM and > 76.6 µM	88.3 µM and > 100 µM	91.7 µM and > 100 µM	> 100	> 100	> 100	> 100	> 100	1.12	22.3	28.4	23.3	26.6	42.8	33.4	29.6	–	–
Cc1ccc(C2SCc3nc4ccc(C(=O)c5ccccc5)cc4n32)cc1 (stereo not drawn)	> 100 µM	55.2	39.6 µM	38.8 µM	> 100 µM	8.38	> 69.1	19.3	> 71.9	> 62	6.18	21.5	14.8	11.7	21.8	2.37	12.4	14.4	11.6	5.29
CCOC(=O)c1c(C)n(CC(C)C)c2c1cc1oc(=O)c(=O)n3cnc2c13	> 50 µM	> 50	> 50 µM	43.4 µM	> 50 µM	38	> 50	21.6	> 50	31	20.7	29.6	35	14.5	17.4	11.6	36.2	12.3	16.9	9.44
O=C(N=Nc1c(O)[nH]c2c(Cl)cc(Cl)cc12)c1ccncc1	> 100 µM	> 100	88.3 µM	> 100 µM	> 100 µM	69.4	> 100	33	> 100	56.5	–	–	–	–	–	–	–	–	–	–
CCCC(=O)NC(c1ccc2c(c1)OCO2)c1ccc2cccnc2c1O (stereo not drawn)	> 100 µM	> 100	> 100 µM	36.1 µM	21.4 µM	16.6	20.6	7.3	> 100	> 100	2.73	2.75	1.2	1.55	1.73	0.443	2.28	1.78	1.08	1.3
C=C1CC2(OC1=O)c1ccccc1C=Cc1ccccc12	5.82 µM	22.5	24.9 µM	3.44 µM	18.3 µM	3.06	10	9.96	29.9	14.7	–	–	–	–	–	–	–	–	–	–
O=C1C(Cl)=C(Nc2cccc(C(F)(F)F)c2)C(=O)N1Cc1ccccc1Cl	35.8 µM	37	25.4 µM	28.4 µM	37 µM	26.8	19.1	13.7	29.4	23.2	12	18.3	12.6	8.34	15.7	10.1	13.1	5.45	6.21	3.18
O=C(O)c1ccc(-c2ccc(C(=O)O)cc2I)c(I)c1	> 100 µM	> 100	> 100 µM	> 100 µM	> 100 µM	> 100	> 100	> 100	> 100	> 100	> 100	> 100	> 100	> 100	> 100	> 100	> 100	> 100	> 100	> 100
CCCCCC(=O)OCC(=O)O[C@@H]1C[C@]2(C(C)C)O[C@@]1(C)[C@@H]1CC[C@@H](C)[C@H]1[C@@H]2OC(=O)/C=C/c1ccccc1	> 95.9 µM	> 100	> 100 µM	> 74.5 µM	> 100 µM	> 70.6	> 100	> 100	> 100	> 75.7	> 61.3	> 81.7	> 74.6	12.8	> 54.5	0.291	> 75.3	> 52.8	> 53.4	> 53.8
